The NIST ThermoML archive (doi:10.1016/j.jct.2017.12.020)

Columns and labels:
[1] = Liquid; for speed of sound: Frequency=2 MHz, Pulse-echo method; for mass density: Vibrating tube method
[2] = molar heat capacity at constant pressure; details: 101.33 kPa, Liquid, Small sample (50 mg) DSC

CCCCCCCCCCCC(=O)OCC [ethyl dodecanoate]
[1]
Details	mass density [kg/m3]	speed of sound [m/s]
293.15 K, 100 kPa	–	1339.9
293.15 K, 101.33 kPa	862.2	–
293.15 K, 10000 kPa	–	1390.8
293.15 K, 20000 kPa	–	1436.7
293.15 K, 30000 kPa	–	1479.3
293.15 K, 40000 kPa	–	1519
293.15 K, 50000 kPa	–	1555.9
293.15 K, 60000 kPa	–	1591.9
293.15 K, 70000 kPa	–	1626.2
293.15 K, 80000 kPa	–	1659.7
293.15 K, 90000 kPa	–	1690.9
293.15 K, 100000 kPa	–	1720.9
293.15 K, 120000 kPa	–	1778.5
303.15 K, 101.33 kPa	854.3	–
313.15 K, 100 kPa	–	1266.1
313.15 K, 101.33 kPa	846.5	–
313.15 K, 10000 kPa	–	1317.6
313.15 K, 20000 kPa	–	1365
313.15 K, 30000 kPa	–	1409.3
313.15 K, 40000 kPa	–	1452.1
313.15 K, 50000 kPa	–	1491.4
313.15 K, 60000 kPa	–	1529.2
313.15 K, 70000 kPa	–	1564.8
313.15 K, 80000 kPa	–	1600.2
313.15 K, 90000 kPa	–	1632.3
313.15 K, 100000 kPa	–	1663
313.15 K, 120000 kPa	–	1721.9
313.15 K, 140000 kPa	–	1777.9
313.15 K, 160000 kPa	–	1830.9
323.15 K, 101.33 kPa	838.8	–
333.15 K, 100 kPa	–	1194
333.15 K, 101.33 kPa	831.1	–
333.15 K, 10000 kPa	–	1250.3
333.15 K, 20000 kPa	–	1300.9
333.15 K, 30000 kPa	–	1348
333.15 K, 40000 kPa	–	1393.4
333.15 K, 50000 kPa	–	1434.3
333.15 K, 60000 kPa	–	1473.3
333.15 K, 70000 kPa	–	1509.8
333.15 K, 80000 kPa	–	1545.4
333.15 K, 90000 kPa	–	1578.6
333.15 K, 100000 kPa	–	1610.9
333.15 K, 120000 kPa	–	1674.1
333.15 K, 140000 kPa	–	1730.4
333.15 K, 160000 kPa	–	1782.7
333.15 K, 180000 kPa	–	1835.3
333.15 K, 200000 kPa	–	1883.8
343.15 K, 101.33 kPa	823.2	–
353.15 K, 100 kPa	–	1125.7
353.15 K, 101.33 kPa	815.2	–
353.15 K, 10000 kPa	–	1186
353.15 K, 20000 kPa	–	1240.6
353.15 K, 30000 kPa	–	1290.3
353.15 K, 40000 kPa	–	1337.1
353.15 K, 50000 kPa	–	1379.7
353.15 K, 60000 kPa	–	1419.8
353.15 K, 70000 kPa	–	1458.8
353.15 K, 80000 kPa	–	1496.2
353.15 K, 90000 kPa	–	1530.6
353.15 K, 100000 kPa	–	1564.4
353.15 K, 120000 kPa	–	1627
353.15 K, 140000 kPa	–	1685.1
353.15 K, 160000 kPa	–	1740.7
353.15 K, 180000 kPa	–	1793.6
353.15 K, 200000 kPa	–	1843.5

viscosity [mPa·s], [1]
Details	293.15 K	313.15 K	333.15 K	353.15 K
101.33 kPa, Capillary tube (Ostwald / Ubbelohde) method	3.35	2.19	1.55	1.16
10000 kPa, quartz crystal resonator	3.77	2.46	1.74	1.29
20000 kPa, quartz crystal resonator	4.28	2.75	1.91	1.44
30000 kPa, quartz crystal resonator	4.78	3.11	2.13	1.58
40000 kPa, quartz crystal resonator	5.39	3.37	2.33	1.73
50000 kPa, quartz crystal resonator	5.94	3.74	2.55	1.9
60000 kPa, quartz crystal resonator	6.65	4.11	2.82	2.05
70000 kPa, quartz crystal resonator	7.25	4.45	3.08	2.22
80000 kPa, quartz crystal resonator	8.13	4.92	3.29	2.4
90000 kPa, quartz crystal resonator	8.91	5.46	3.6	2.58
100000 kPa, quartz crystal resonator	9.76	5.96	3.94	2.78
120000 kPa, quartz crystal resonator	11.9	6.77	4.55	3.22
140000 kPa, quartz crystal resonator	–	8.06	5.27	3.68
160000 kPa, quartz crystal resonator	–	9.57	6.1	4.19
180000 kPa, quartz crystal resonator	–	–	6.98	4.76
200000 kPa, quartz crystal resonator	–	–	7.85	5.28

[2]
Details	molar heat capacity at constant pressure [J/K/mol]
297.91 K	459.03
307.79 K	464.37
317.66 K	469.8
327.54 K	475.42
337.42 K	481.45
347.29 K	487.46
357.17 K	493.28
367.05 K	499.88
376.92 K	507.07
386.8 K	515.39
